Test results: ChEMBL document CHEMBL1122454, “Piperazinylimidazo[1,2-a]pyrazines with selective affinity for in vitro alpha-adrenergic receptor subtypes” (J Med Chem, 1983)

How the values were obtained:
[1] = Displacement of [3H]prazosin from alpha-1-adrenergic receptor of calf neocortical membrane; parameters: species or system Bos taurus
[2] = Displacement of [3H]clonidine from alpha-2-adrenergic receptor of calf neocortical membrane; parameters: species or system Bos taurus
Bos taurus = species on record: Bos taurus; experiment: Relative affinity for alpha-1 and alpha-2 adrenergic receptors; parameters: reference not given here

Kd [1] [nM]	Compound	Kd ([1]; read-out: Kd) [nM]	Kd [2] [nM]	Ratio (Bos taurus)
	c1ccc2c(c1)N=C(N1CCNCC1)C1=NCCN12	1300	1800	0.72
	Clc1cn2ccnc2c(N2CCNCC2)n1	250	88	2.8
	CN1CCN(c2nc(Cl)cn3ccnc23)CC1	380	144	2.6
	ClC1=CN2CCN=C2C(N2CCNCC2)=N1	3000	1600	1.9
43	CN1CCN2c3ccccc3Cc3ccccc3C2C1 (configuration not stated) [MIANSERIN]		19	2.3
	Clc1cn2c(Cl)cnc2c(N2CCNCC2)n1	410	1000	0.4
	Clc1cnc2cnc(N3CCNCC3)cn12	6800	18900	0.36
	Clc1cnc2c(N3CCNCC3)nccn12	2780	290	9.6
	c1ccc(-c2cn3ccnc3c(N3CCNCC3)n2)cc1	360	1800	0.2
	Clc1cn2c3c(nc2c(N2CCNCC2)n1)CCCC3	200	1500	0.13
	c1cn2ccnc2c(N2CCNCC2)n1	3100	19	160
	Clc1cncc(N2CCNCC2)n1 [MK-212]	2400	150	16
	Cc1cnc2c(N3CCNCC3)nc(Cl)cn12	160	250	0.64
	c1cn2c(N3CCNCC3)cncc2n1	51000	28100	1.8
